What was measured:
[1] = tested on: Redroot Pigweed; assay: Field preemergence test, weed control; assay type: in vivo; conditions: 3-4 weeks after planting
Description: (§1) Test plots of fertilized, light sandy soil containing 0.7% organic matter are sprayed uniformly with aqueous suspensions prepared from emulsifiable concentrates containing 12%, by weight, of the test chemicals diluted to provide dosage rates of the test compounds corresponding to 2.0, 1.0, 0.5, and 0.25 pound per acre (lb/A). The plots are then sown with seeds of the following crop plants: sweet corn, cotton (Coker 413) and soybeans, var. Davis. Seeds of the following weed plants are planted: redroot pigweed, prickly sida, common lambsquarter, goosegrass and giant foxtail.
(§2) Three to four weeks after planting, percent control (plant kill) of the test plants is estimated, from a rating of 0 which denotes no injury to the plant up to 100 which denotes complete destruction. The herbicidal action of the test compounds obtained on the weed species is as follows: […]

[2] = tested on: Prickly Sida; assay: Field preemergence test, weed control; assay type: in vivo; conditions: 3-4 weeks after planting
Description: as §1, §2

[3] = tested on: Giant Foxtail; assay: Field preemergence test, weed control; assay type: in vivo; conditions: 3-4 weeks after planting
Description: as §1, §2

[4] = tested on: Soybeans; assay: Example 18 phytotoxic effects on crop stands in different soils; assay type: in vivo, soybean
Experimental: (§3) To further illustrate the herbicidal activity of compounds of this invention in different types of soil as would be encountered in different crop growing localities, a preemergence herbicide test is conducted generally as outlined previously herein. Two light sandy soils are employed containing 0.7% and 1.8% organic matter (O.M.), respectively, along with two loam-type, heavier soils containing either 2.0% or 5-5.5% organic matter (O.M.).
(§4) The test plots are all sprayed uniformly with formulations of the test compounds providing 2.0, 1.0, 0.5, and 0.25 pound of active chemical per acre (lb/A).
(§5) Prior to treatment, the soil plots are sown to field corn, soybean, and grain sorghum crops and seeds of barnyard-grass and yellow foxtail.
(§6) Three weeks after planting, the percent control of plant growth is rated from 0% (no injury) to 100% (total destruction). The results obtained are as follows:
(§7) Phytotoxic effects on the crop stands are similarly rated with the following results: […]

[5] = tested on: Barnyardgrass; assay: Example 18 preemergence herbicide test in different soils, % control; assay type: in vivo, barnyard-grass; conditions: three weeks
Experimental: as §3, §4, §5
Three weeks after planting, the percent control of plant growth is rated from 0% (no injury) to 100% (total destruction).

[6] = tested on: Cotton; assay: Field preemergence test, phytotoxic effects on crop; assay type: in vivo, cotton (Coker 413)
Description: as §1
(§8) Three to four weeks after planting, percent control (plant kill) of the test plants is estimated, from a rating of 0 which denotes no injury to the plant up to 100 which denotes complete destruction. The herbicidal action of the test compounds obtained on the weed species is as follows:
(§9) Phytotoxic effects observed on the crop species is estimated with results as follows: […]

[7] = tested on: Sorghum; assay: Example 18 phytotoxic effects on crop stands in different soils; assay type: in vivo, grain sorghum
Experimental: as §3, §4, §5, §6, §7

[8] = tested on: corn; assay: Example 17 damage to corn crop; assay type: in vivo
Description: (§10) This example illustrates the selective herbicidal activity of two of the presently preferred compounds of this invention against various weed species in a corn crop.
(§11) Plots of light sandy soil, cleared of all weeds, are uniformly treated with aqueous dispersions prepared from an emulsifiable concentrate containing 2- 4 pounds of active ingredient per gallon. Diluted aqueous dispersions are applied as surface treatments at 2.0, 1.0, 0.5, and 0.25 pound of active ingredient per acre (lb/A).
(§12) The treated test plots are sown to corn and with seeds of the following weed species:
(§13) Three to four weeks after planting, the degree of damage to both the corn stands and the weed plants is assessed from a rating of 0% (no injury) to 100% (complete destruction).

[9] = tested on: Soybeans; assay: Field preemergence test, phytotoxic effects on crop; assay type: in vivo, var. Davis
Description: as §1, §8, §9

[10] = tested on: Goosegrass; assay: Example 17 selective herbicidal activity in corn crop, weed kill; assay type: in vivo, Eleusine indica; conditions: 3-4 weeks after planting
Description: as §10, §11, §12, §13

[11] = tested on: broadleaf species: pigweed, velvetleaf, morningglory; assay: Greenhouse preemergence herbicide test, broadleaves; assay type: in vivo; conditions: two weeks after treatment, 20160 min
Experimental: To illustrate the preemergence herbicidal efficiency of the alkyl-substituted 2-chloro-N-propargylacetanilides of this invention, test formulations are prepared of each compound by mixing 20 ml of an acetone solution containing 0.125 g of chemical with 20 ml of water containing 0.01 g of Triton X-155 surfactant. The resultant formulations contain 3125 ppm of test compound, 50% by volume of acetone and 0.025% by weight of surfactant. Appropriate lower concentrations are obtained by diluting this formulation with surfactant-acetone solution so that the concentration of adjuvants is maintained at the original levels.
Seeds of three broadleaf and three grass species are planted in soil contained in 10 inch × 8 inch × 3 inch aluminum pans filled with 1.5 inches of composted soil. The broadleaf species are pigweed (Amaranthus retroflexus), velvetleaf (Abutilon theophrasti), and morningglory (Ipomea coccinea); the grasses are red millet (Panicum milliacem), green foxtail (Setaria viridis) and Japanese millet (Echinochloa frumentacea).
The seeded pans are sprayed so that the soil surface is uniformly covered with dilutions of the stock formulation providing dosage rates of the test compounds as shown in the following table.
Two weeks after treatment, percent control (plant kill) at each dosage rate is estimated with results as follows: […]

[12] = 0.5 lb/A, Heavy Soil 5-5.5% O.M.
[13] = 0.5 lb/A, Medium Soil 2.0% O.M.
[14] = 1.0 lb/A, Heavy Soil 5-5.5% O.M.
[15] = 1.0 lb/A, Medium Soil 2.0% O.M.
[16] = 2.0 lb/A, Heavy Soil 5-5.5% O.M.
[17] = 2.0 lb/A, Medium Soil 2.0% O.M.

## C#CCN(C(=O)CCl)c1c(CC)cccc1CC [Example 9, 2-Chloro-2',6'-diethyl-N-propargylacetanilide]
[1]; 0.25 lb/A
  % Weed Control, Redroot Pigweed: 75%
[1]; 0.5 lb/A
  % Weed Control, Redroot Pigweed: 93%
[1]; 1.0 lb/A
  % Weed Control, Redroot Pigweed: 100%
[1]; 2.0 lb/A
  % Weed Control, Redroot Pigweed: 100%
[2]; 0.25 lb/A
  % Weed Control, Prickly Sida: 0%
[2]; 0.5 lb/A
  % Weed Control, Prickly Sida: 80%
[2]; 1.0 lb/A
  % Weed Control, Prickly Sida: 42%
[2]; 2.0 lb/A
  % Weed Control, Prickly Sida: 93%
[3]; 0.25 lb/A
  % Weed Control, Giant Foxtail: 42%
[3]; 0.5 lb/A
  % Weed Control, Giant Foxtail: 85%
[3]; 1.0 lb/A
  % Weed Control, Giant Foxtail: 97%
[3]; 2.0 lb/A
  % Weed Control, Giant Foxtail: 100%
[4]; [12]
  % Phytotoxicity, Soybeans: 0%
[4]; [13]
  % Phytotoxicity, Soybeans: 0%
[4]; 0.5 lb/A, Sand 0.7% O.M.
  % Phytotoxicity, Soybeans: 0%
[4]; 0.5 lb/A, Sand 1.8% O.M.
  % Phytotoxicity, Soybeans: 0%
[4]; [14]
  % Phytotoxicity, Soybeans: 0%
[4]; [15]
  % Phytotoxicity, Soybeans: 0%
[4]; 1.0 lb/A, Sand 0.7% O.M.
  % Phytotoxicity, Soybeans: 0%
[4]; 1.0 lb/A, Sand 1.8% O.M.
  % Phytotoxicity, Soybeans: 0%
[4]; [16]
  % Phytotoxicity, Soybeans: 0%
[4]; [17]
  % Phytotoxicity, Soybeans: 0%
[4]; 2.0 lb/A, Sand 0.7% O.M.
  % Phytotoxicity, Soybeans: 0%
[4]; 2.0 lb/A, Sand 1.8% O.M.
  % Phytotoxicity, Soybeans: 0%
[5]; [12]
  % Control, Barnyardgrass: 90%
[5]; [13]
  % Control, Barnyardgrass: 95%
[5]; 0.5 lb/A, Sand 0.7% O.M.
  % Control, Barnyardgrass: 60%
[5]; 0.5 lb/A, Sand 1.8% O.M.
  % Control, Barnyardgrass: 85%
[5]; [14]
  % Control, Barnyardgrass: 98%
[5]; [15]
  % Control, Barnyardgrass: 100%
[5]; 1.0 lb/A, Sand 0.7% O.M.
  % Control, Barnyardgrass: 90%
[5]; 1.0 lb/A, Sand 1.8% O.M.
  % Control, Barnyardgrass: 90%
[5]; [16]
  % Control, Barnyardgrass: 100%
[5]; [17]
  % Control, Barnyardgrass: 100%
[5]; 2.0 lb/A, Sand 0.7% O.M.
  % Control, Barnyardgrass: 100%
[5]; 2.0 lb/A, Sand 1.8% O.M.
  % Control, Barnyardgrass: 100%
[6]; 1.0 lb/A
  % Crop Kill, Cotton: 0%
[6]; 2.0 lb/A
  % Crop Kill, Cotton: 3%
[7]; [12]
  % Phytotoxicity, Sorghum: 35%
[7]; [13]
  % Phytotoxicity, Sorghum: 40%
[7]; 0.5 lb/A, Sand 0.7% O.M.
  % Phytotoxicity, Sorghum: 0%
[7]; 0.5 lb/A, Sand 1.8% O.M.
  % Phytotoxicity, Sorghum: 10%
[7]; [14]
  % Phytotoxicity, Sorghum: 75%
[7]; [15]
  % Phytotoxicity, Sorghum: 55%
[7]; 1.0 lb/A, Sand 0.7% O.M.
  % Phytotoxicity, Sorghum: 10%
[7]; 1.0 lb/A, Sand 1.8% O.M.
  % Phytotoxicity, Sorghum: 30%
[7]; [16]
  % Phytotoxicity, Sorghum: 99%
[7]; [17]
  % Phytotoxicity, Sorghum: 95%
[7]; 2.0 lb/A, Sand 0.7% O.M.
  % Phytotoxicity, Sorghum: 30%
[7]; 2.0 lb/A, Sand 1.8% O.M.
  % Phytotoxicity, Sorghum: 70%
[8]; 2 lb/A
  phytotoxic effects on corn: no phytotoxic effects
[9]; 1.0 lb/A
  % Crop Kill, Soybeans: 0%
[9]; 2.0 lb/A
  % Crop Kill, Soybeans: 0%
[10]; 0.25 lb/A
  % Weed Kill, Goosegrass: 87%
[10]; 0.5 lb/A
  % Weed Kill, Goosegrass: 100%
[10]; 1.0 lb/A
  % Weed Kill, Goosegrass: 100%
[10]; 2.0 lb/A
  % Weed Kill, Goosegrass: 100%
[11]; 0.062 lb/A
  % Control, Broadleaves: 0%
[11]; 0.125 lb/A
  % Control, Broadleaves: 0%
[11]; 0.25 lb/A
  % Control, Broadleaves: 0%
[11]; 0.5 lb/A
  % Control, Broadleaves: 35%
[11]; 1.0 lb/A
  % Control, Broadleaves: 35%

## C#CCN(C(=O)CCl)c1c(C)cccc1CC [Example 15, 2-Chloro-2'-methyl-6'-ethyl-N-propargylacetanilide]
[1]; 0.25 lb/A
  % Weed Control, Redroot Pigweed: 65%
[1]; 0.5 lb/A
  % Weed Control, Redroot Pigweed: 89%
[1]; 1.0 lb/A
  % Weed Control, Redroot Pigweed: 100%
[1]; 2.0 lb/A
  % Weed Control, Redroot Pigweed: 100%
[2]; 0.25 lb/A
  % Weed Control, Prickly Sida: 0%
[2]; 0.5 lb/A
  % Weed Control, Prickly Sida: 55%
[2]; 1.0 lb/A
  % Weed Control, Prickly Sida: 93%
[2]; 2.0 lb/A
  % Weed Control, Prickly Sida: 97%
[3]; 0.25 lb/A
  % Weed Control, Giant Foxtail: 47%
[3]; 0.5 lb/A
  % Weed Control, Giant Foxtail: 78%
[3]; 1.0 lb/A
  % Weed Control, Giant Foxtail: 97%
[3]; 2.0 lb/A
  % Weed Control, Giant Foxtail: 100%
[4]; [12]
  % Phytotoxicity, Soybeans: 0%
[4]; [13]
  % Phytotoxicity, Soybeans: 0%
[4]; 0.5 lb/A, Sand 0.7% O.M.
  % Phytotoxicity, Soybeans: 0%
[4]; 0.5 lb/A, Sand 1.8% O.M.
  % Phytotoxicity, Soybeans: 0%
[4]; [14]
  % Phytotoxicity, Soybeans: 0%
[4]; [15]
  % Phytotoxicity, Soybeans: 0%
[4]; 1.0 lb/A, Sand 0.7% O.M.
  % Phytotoxicity, Soybeans: 0%
[4]; 1.0 lb/A, Sand 1.8% O.M.
  % Phytotoxicity, Soybeans: 0%
[4]; [16]
  % Phytotoxicity, Soybeans: 0%
[4]; [17]
  % Phytotoxicity, Soybeans: 0%
[4]; 2.0 lb/A, Sand 0.7% O.M.
  % Phytotoxicity, Soybeans: 0%
[4]; 2.0 lb/A, Sand 1.8% O.M.
  % Phytotoxicity, Soybeans: 0%
[5]; [12]
  % Control, Barnyardgrass: 98%
[5]; [13]
  % Control, Barnyardgrass: 100%
[5]; 0.5 lb/A, Sand 0.7% O.M.
  % Control, Barnyardgrass: 75%
[5]; 0.5 lb/A, Sand 1.8% O.M.
  % Control, Barnyardgrass: 50%
[5]; [14]
  % Control, Barnyardgrass: 100%
[5]; [15]
  % Control, Barnyardgrass: 100%
[5]; 1.0 lb/A, Sand 0.7% O.M.
  % Control, Barnyardgrass: 99%
[5]; 1.0 lb/A, Sand 1.8% O.M.
  % Control, Barnyardgrass: 90%
[5]; [16]
  % Control, Barnyardgrass: 100%
[5]; [17]
  % Control, Barnyardgrass: 100%
[5]; 2.0 lb/A, Sand 0.7% O.M.
  % Control, Barnyardgrass: 99%
[5]; 2.0 lb/A, Sand 1.8% O.M.
  % Control, Barnyardgrass: 99%
[6]; 0.5 lb/A
  % Crop Kill, Cotton: 0%
[6]; 1.0 lb/A
  % Crop Kill, Cotton: 6%
[6]; 2.0 lb/A
  % Crop Kill, Cotton: 13%
[7]; [12]
  % Phytotoxicity, Sorghum: 45%
[7]; [13]
  % Phytotoxicity, Sorghum: 60%
[7]; 0.5 lb/A, Sand 0.7% O.M.
  % Phytotoxicity, Sorghum: 0%
[7]; 0.5 lb/A, Sand 1.8% O.M.
  % Phytotoxicity, Sorghum: 20%
[7]; [14]
  % Phytotoxicity, Sorghum: 90%
[7]; [15]
  % Phytotoxicity, Sorghum: 100%
[7]; 1.0 lb/A, Sand 0.7% O.M.
  % Phytotoxicity, Sorghum: 15%
[7]; 1.0 lb/A, Sand 1.8% O.M.
  % Phytotoxicity, Sorghum: 65%
[7]; [16]
  % Phytotoxicity, Sorghum: 99%
[7]; [17]
  % Phytotoxicity, Sorghum: 100%
[7]; 2.0 lb/A, Sand 0.7% O.M.
  % Phytotoxicity, Sorghum: 50%
[7]; 2.0 lb/A, Sand 1.8% O.M.
  % Phytotoxicity, Sorghum: 90%
[8]; 1 lb/A
  injury to the corn: no injury
[9]; 0.5 lb/A
  % Crop Kill, Soybeans: 0%
[9]; 1.0 lb/A
  % Crop Kill, Soybeans: 3%
[9]; 2.0 lb/A
  % Crop Kill, Soybeans: 13%
[10]; 0.25 lb/A
  % Weed Kill, Goosegrass: 82%
[10]; 0.5 lb/A
  % Weed Kill, Goosegrass: 100%
[10]; 1.0 lb/A
  % Weed Kill, Goosegrass: 100%
[10]; 2.0 lb/A
  % Weed Kill, Goosegrass: 100%
[11]; 0.5 lb/A
  % Control, Broadleaves: 0%
[11]; 1.0 lb/A
  % Control, Broadleaves: 35%

Source: patent US4001325A, “α-Chloroacetanilide selective herbicides” (Diamond Shamrock Corporation, priority 1973, dated 1977)
